Measurements as given in PubChem BioAssay (NCI).
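48-hour exposure; five concentrations; linearly interpolated endpoints. TGI is the concentration that stops growth completely.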

Experiments:
Assay in all cases: NCI anticancer screen, dose series, 48 h
[1] = system: SNB-19 CNS
[2] = system: UACC-257 melanoma
[3] = system: NCI-H226 lung
[4] = system: BT-549 breast
[5] = system: 786-0 renal
[6] = system: HS 578T breast
[7] = system: KM12 colon
[8] = system: UO-31 renal
[9] = system: HCT-116 colon
[10] = system: MOLT-4 leukemia
[11] = system: COLO 205 colon
[12] = system: PC-3 prostate
[13] = system: MDA-MB-231 breast
[14] = system: MDA-N
[15] = system: ACHN renal
[16] = system: HL-60(TB) leukemia
[17] = system: A498 renal
[18] = system: TK-10 renal
[19] = system: UACC-62 melanoma
[20] = system: EKVX NSCLC
[21] = system: HCT-15 colon
[22] = system: NCI-H522 lung
[23] = system: SK-OV-3 ovarian
[24] = system: OVCAR-8 ovarian
[25] = system: A549 NSCLC
[26] = system: SR leukemia
[27] = system: NCI-H460 lung
[28] = system: SW-620 colon
[29] = system: NCI-H23 lung
[30] = system: MALME-3M melanoma
[31] = system: M14 melanoma
[32] = system: SF-295 CNS
[33] = system: HOP-62 NSCLC
[34] = system: HT29 colon
[35] = system: MCF7 breast
[36] = system: SF-539 CNS
[37] = system: SF-268 CNS
[38] = system: SK-MEL-2 melanoma
[39] = system: SN12C renal
[40] = system: LOX IMVI melanoma
[41] = system: RPMI-8226 leukemia
[42] = system: OVCAR-5 ovarian
[43] = system: SK-MEL-28 melanoma
[44] = system: HCC-2998 colon
[45] = system: RXF 393 renal
[46] = system: DU-145 prostate
[47] = system: K-562 leukemia
[48] = system: U251 CNS
[49] = system: CCRF-CEM leukemia
[50] = system: OVCAR-3 ovarian
[51] = system: NCI/ADR-RES ovarian
[52] = system: SK-MEL-5 melanoma
[53] = system: T-47D breast
[54] = system: IGROV1 ovarian

CC(C)/C(Cl)=N\OC(=O)Nc1ccc(F)cc1
TGI [1]: 39.3 µM
TGI [2]: 28.3 µM
TGI [3]: 36.9 µM
TGI [4]: 24.2 µM
TGI [5]: 9.55 µM
TGI [6]: 71.9 µM
TGI [7]: 35.7 µM
TGI [8]: 10.5 µM
TGI [9]: 22.6 µM
TGI [10]: 4.2 µM
TGI [11]: 4.42 µM
TGI [12]: 31.4 µM
TGI [13]: 5.17 µM
TGI [14]: 23.2 µM
TGI [15]: 7.7 µM
TGI [16]: 3.72 µM
TGI [17]: 28.5 µM
TGI [18]: 9.06 µM
TGI [19]: 40 µM
TGI [20]: 11.3 µM
TGI [21]: 12.9 µM
TGI [22]: 3.02 µM
TGI [23]: 31.7 µM
TGI [24]: 25.6 µM
TGI [25]: 35.9 µM
TGI [26]: 4.33 µM
TGI [27]: 36.1 µM
TGI [28]: 3.23 µM
TGI [29]: 38.4 µM
TGI [30]: 3.91 µM
TGI [31]: 16.1 µM
TGI [32]: 27.8 µM
TGI [33]: 33.4 µM
TGI [34]: 4.6 µM
TGI [35]: 14.3 µM
TGI [36]: 32.8 µM
TGI [37]: 56.1 µM
TGI [38]: 32.8 µM
TGI [39]: 16.7 µM
TGI [40]: 5.73 µM
TGI [41]: 4.19 µM
TGI [42]: 30.4 µM
TGI [43]: 11.5 µM
TGI [44]: 32 µM
TGI [45]: 29.9 µM
TGI [46]: 30.7 µM
TGI [47]: 3.45 µM
TGI [48]: 29 µM
TGI [49]: 3.62 µM
TGI [50]: 21.6 µM
TGI [51]: > 48.5 µM
TGI [52]: 26.4 µM
TGI [53]: 24.1 µM
TGI [54]: 31.7 µM
